Laboratory results taken from publication PMC8187944, “Discovery of Potent EGFR Inhibitors With 6-Arylureido-4-anilinoquinazoline Derivatives” (Frontiers in Pharmacology, 2021).

Columns and labels:
Assay in all cases: Kinase spectrum assay (ADP-Glo)
Details in all cases: remaining enzyme activity at 1 μm compound
Abl = Abl (Homo sapiens, UniProt P00519)
Experimental: (§1) The above-prepared systems were sealed and incubated at room temperature for 2 h, and 5 μl of ADP-GLO was added to terminate the kinase reaction. Then, the culture plate was sealed and incubated in a thermostatic oscillator for 40 min to fully consume the remaining ATP. The luciferase/luciferin reaction was adopted to determine the newly generated ATP level.

Csk = Csk (Homo sapiens, UniProt P41240)
Experimental: as §1

FAK = FAK (Homo sapiens, UniProt Q05397)
Experimental: as §1

SRC = SRC (Homo sapiens, UniProt P12931)
Experimental: (§2) The ADP-Glo™ kinase detection kit is a luminescence kinase detection approach that detects the amount of ADP produced by the kinase reaction. After ADP is converted into ATP, ATP can be used as the substrate of the luciferase-catalyzed reaction to generate an optical signal, which is positively correlated with kinase activity. […] The above-prepared systems were sealed and incubated at room temperature for 2 h, and 5 μl of ADP-GLO was added to terminate the kinase reaction. Then, the culture plate was sealed and incubated in a thermostatic oscillator for 40 min to fully consume the remaining ATP. The luciferase/luciferin reaction was adopted to determine the newly generated ATP level.

TRKA = TRKA (Homo sapiens, UniProt P04629)
Experimental: as §2

KDR = KDR (Homo sapiens, UniProt P35968)
Chain of KDR (P35968 20-1356): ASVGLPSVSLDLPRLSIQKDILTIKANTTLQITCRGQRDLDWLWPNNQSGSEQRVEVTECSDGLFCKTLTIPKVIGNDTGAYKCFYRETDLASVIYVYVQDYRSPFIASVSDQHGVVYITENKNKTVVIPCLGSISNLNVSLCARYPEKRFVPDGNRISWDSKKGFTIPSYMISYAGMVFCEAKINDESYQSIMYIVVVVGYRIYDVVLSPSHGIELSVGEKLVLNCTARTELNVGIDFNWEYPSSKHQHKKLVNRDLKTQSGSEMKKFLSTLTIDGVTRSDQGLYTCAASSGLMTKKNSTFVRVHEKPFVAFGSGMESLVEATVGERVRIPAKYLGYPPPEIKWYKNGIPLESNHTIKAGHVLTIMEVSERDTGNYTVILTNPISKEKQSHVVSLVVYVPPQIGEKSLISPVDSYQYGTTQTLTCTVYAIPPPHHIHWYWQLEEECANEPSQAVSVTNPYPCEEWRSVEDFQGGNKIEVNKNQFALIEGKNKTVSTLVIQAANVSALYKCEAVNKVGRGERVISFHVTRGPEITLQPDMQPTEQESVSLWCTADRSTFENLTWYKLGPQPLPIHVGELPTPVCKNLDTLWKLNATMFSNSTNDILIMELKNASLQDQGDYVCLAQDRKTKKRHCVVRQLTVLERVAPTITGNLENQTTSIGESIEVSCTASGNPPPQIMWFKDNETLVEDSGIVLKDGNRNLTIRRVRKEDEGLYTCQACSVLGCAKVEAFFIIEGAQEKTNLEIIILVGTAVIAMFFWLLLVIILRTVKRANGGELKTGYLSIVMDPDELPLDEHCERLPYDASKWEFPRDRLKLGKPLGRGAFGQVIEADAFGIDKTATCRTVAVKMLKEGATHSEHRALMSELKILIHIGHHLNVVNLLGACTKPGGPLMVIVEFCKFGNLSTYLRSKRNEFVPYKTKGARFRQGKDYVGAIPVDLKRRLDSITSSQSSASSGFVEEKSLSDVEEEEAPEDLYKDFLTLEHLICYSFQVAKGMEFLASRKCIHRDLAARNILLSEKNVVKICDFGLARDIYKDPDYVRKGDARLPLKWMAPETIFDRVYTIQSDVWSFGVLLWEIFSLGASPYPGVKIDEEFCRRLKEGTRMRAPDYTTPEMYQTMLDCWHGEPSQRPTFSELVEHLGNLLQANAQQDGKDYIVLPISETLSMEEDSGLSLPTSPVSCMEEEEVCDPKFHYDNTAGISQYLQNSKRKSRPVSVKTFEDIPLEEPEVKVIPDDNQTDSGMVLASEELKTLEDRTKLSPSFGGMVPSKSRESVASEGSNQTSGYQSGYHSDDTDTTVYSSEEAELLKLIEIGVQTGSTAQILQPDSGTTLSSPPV
Experimental: as §2

JAK3 = JAK3 (Homo sapiens, UniProt P52333)
Chain of JAK3 (P52333 whole entry): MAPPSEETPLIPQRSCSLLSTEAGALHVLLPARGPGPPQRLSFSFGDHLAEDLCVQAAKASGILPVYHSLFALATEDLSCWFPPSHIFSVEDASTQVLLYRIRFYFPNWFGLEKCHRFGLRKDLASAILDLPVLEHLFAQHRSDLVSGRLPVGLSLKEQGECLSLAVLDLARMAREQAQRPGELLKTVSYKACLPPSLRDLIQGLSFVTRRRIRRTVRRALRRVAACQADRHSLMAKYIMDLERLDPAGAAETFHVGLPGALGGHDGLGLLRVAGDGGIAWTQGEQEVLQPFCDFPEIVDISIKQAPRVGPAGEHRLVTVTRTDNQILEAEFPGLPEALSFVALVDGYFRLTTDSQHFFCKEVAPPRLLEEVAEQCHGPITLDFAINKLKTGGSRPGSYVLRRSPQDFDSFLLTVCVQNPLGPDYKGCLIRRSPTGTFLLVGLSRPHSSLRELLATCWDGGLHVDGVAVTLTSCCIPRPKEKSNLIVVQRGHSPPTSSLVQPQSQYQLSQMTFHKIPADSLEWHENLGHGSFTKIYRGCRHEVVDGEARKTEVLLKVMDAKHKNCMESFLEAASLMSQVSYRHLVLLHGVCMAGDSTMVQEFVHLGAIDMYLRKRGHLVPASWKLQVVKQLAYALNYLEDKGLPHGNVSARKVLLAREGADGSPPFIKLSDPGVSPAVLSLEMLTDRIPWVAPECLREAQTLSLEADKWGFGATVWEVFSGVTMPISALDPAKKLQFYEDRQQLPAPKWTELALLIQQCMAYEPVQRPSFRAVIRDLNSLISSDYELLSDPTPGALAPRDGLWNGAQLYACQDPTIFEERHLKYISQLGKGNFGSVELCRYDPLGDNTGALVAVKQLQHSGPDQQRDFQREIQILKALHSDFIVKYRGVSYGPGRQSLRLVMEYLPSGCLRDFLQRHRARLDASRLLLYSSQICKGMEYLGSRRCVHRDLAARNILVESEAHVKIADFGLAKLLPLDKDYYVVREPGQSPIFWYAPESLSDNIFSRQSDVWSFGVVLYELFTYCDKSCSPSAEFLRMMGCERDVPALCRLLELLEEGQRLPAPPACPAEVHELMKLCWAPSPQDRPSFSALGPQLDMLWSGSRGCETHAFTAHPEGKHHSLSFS
Experimental: as §2

ASK1 = ASK1 (Homo sapiens, UniProt Q99683)
Chain of ASK1 (Q99683 whole entry): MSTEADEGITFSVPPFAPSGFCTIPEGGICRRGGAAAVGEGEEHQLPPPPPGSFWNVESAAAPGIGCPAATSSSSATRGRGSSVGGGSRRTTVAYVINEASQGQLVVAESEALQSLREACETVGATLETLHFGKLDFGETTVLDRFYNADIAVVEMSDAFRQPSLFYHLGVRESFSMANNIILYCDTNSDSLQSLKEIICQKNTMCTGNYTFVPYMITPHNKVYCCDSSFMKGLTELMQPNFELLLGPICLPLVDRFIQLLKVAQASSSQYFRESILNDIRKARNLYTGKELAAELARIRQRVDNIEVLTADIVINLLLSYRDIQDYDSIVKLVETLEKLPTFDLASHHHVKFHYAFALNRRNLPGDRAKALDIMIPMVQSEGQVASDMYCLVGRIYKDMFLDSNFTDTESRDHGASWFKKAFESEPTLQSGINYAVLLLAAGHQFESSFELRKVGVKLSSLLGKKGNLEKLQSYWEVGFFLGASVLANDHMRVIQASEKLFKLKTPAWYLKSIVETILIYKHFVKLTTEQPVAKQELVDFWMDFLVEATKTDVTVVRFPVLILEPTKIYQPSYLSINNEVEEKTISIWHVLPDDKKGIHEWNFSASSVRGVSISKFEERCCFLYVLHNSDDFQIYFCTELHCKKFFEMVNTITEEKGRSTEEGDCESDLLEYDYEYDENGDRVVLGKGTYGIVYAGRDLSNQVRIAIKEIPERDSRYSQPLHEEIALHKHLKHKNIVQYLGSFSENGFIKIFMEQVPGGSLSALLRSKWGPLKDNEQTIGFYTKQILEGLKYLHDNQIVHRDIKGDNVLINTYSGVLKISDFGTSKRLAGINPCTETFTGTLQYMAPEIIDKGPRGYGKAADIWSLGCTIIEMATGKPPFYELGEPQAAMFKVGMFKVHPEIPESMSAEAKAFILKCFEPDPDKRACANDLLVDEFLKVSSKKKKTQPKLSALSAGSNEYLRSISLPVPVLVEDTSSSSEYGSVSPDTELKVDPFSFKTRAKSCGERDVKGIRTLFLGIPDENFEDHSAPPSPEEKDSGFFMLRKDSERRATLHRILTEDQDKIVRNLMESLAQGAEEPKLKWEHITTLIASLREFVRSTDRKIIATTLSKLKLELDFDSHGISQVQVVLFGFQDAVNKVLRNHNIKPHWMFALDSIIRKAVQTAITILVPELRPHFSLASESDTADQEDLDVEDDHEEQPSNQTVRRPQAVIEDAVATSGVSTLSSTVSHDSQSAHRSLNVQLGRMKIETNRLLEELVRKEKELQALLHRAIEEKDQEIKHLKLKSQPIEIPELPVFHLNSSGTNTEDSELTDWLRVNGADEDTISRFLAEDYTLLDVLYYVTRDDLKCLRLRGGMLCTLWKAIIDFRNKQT
Experimental: as §2

CDK2 = CDK2 (Homo sapiens, UniProt P24941)
Experimental: as §2

JNK1 = JNK1 (Homo sapiens, UniProt P45983)
Experimental: as §2

Chain of SRC (P12931 whole entry): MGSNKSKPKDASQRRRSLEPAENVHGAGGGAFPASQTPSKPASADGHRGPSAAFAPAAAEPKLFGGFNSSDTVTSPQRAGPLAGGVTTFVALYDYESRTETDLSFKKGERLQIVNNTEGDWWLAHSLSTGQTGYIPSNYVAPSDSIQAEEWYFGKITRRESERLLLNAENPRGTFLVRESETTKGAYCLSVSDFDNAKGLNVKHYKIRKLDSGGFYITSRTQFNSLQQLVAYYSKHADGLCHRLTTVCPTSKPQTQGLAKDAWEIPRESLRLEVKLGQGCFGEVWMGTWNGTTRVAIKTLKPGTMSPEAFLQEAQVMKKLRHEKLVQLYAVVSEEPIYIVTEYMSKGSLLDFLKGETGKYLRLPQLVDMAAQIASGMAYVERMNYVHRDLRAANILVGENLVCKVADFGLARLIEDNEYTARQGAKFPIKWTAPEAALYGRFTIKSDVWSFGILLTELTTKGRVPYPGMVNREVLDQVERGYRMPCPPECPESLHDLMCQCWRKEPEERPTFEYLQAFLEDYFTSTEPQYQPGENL
Chain of Csk (P41240 whole entry): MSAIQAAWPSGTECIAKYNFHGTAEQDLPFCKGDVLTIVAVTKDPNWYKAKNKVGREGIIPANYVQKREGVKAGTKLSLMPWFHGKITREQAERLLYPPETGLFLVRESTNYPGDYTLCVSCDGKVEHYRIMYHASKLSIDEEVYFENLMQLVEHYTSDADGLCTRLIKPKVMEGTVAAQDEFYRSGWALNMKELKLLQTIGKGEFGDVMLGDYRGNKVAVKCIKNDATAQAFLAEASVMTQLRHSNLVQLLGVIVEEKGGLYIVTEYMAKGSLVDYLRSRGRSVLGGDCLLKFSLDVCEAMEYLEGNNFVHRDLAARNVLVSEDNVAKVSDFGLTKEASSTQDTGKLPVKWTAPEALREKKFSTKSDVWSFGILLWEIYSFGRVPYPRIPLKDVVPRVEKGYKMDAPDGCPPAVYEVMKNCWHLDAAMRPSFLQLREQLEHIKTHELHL

## O=C(Nc1ccc(Cl)c(C(F)(F)F)c1)Nc1ccc2ncnc(Nc3cccc(Br)c3)c2c1 [Compound 7i]
Abl
  Enzyme activity % Abl: 94.51 ± 0.41%
Csk
  Enzyme activity % Csk: 93.76 ± 4.09%
FAK
  Enzyme activity % FAK: 81.70 ± 2.75%
SRC
  Enzyme activity % SRC: 72.10 ± 1.83%
TRKA
  Enzyme activity % TRKA: 83.52 ± 3.13%
KDR
  Enzyme activity % KDR: 79.66 ± 2.00%
JAK3
  Enzyme activity % JAK3: 82.49 ± 1.82%
ASK1
  Enzyme activity % ASK1: 62.27 ± 3.02%
CDK2
  Enzyme activity % CDK2: 77.40 ± 6.84%
JNK1
  Enzyme activity % JNK1: 89.43 ± 2.48%
